The text below walks through data of US20250114374A1, “BCL-2 INHIBITORS” (Newave Pharmaceutical Inc., priority 2021, published 2025).

In this assay the test system is RS4; 11 with G101V mutation. Put plainly: In vitro anti-proliferation assay (ATPlite luminescence) in BCL-2-dependent ALL cell line RS4;11 with G101V mutation. Format: cell-based. As to conditions: read-out: RS411-G101V IC50. Summed up:
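IC50 came from luminescent ATP quantification (ATPlite) following cell lysis. Compound dose ranges were applied for roughly 72 h to about 1×10^4 G101V-mutant RS4;11 cells per well, in 10% FBS medium.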
(In ATP-based viability assays light output follows the ATP content of the culture.)

Setting [1] is: cellular anti-proliferative IC50, about 72 hours, medium with 10% FBS, ATPlite.

Where two headings read alike, the source gives them in different places.

For orientation: IC50 means the midpoint of a concentration-inhibition curve. With `COc1cc([C@H](C)N2CCN(C3CC4(CCN(c5ccc(C(=O)NS(=O)(=O)c6cc7c(c([N+](=O)[O-])c6)N[C@H](C6CCOCC6)CO7)c(N6c7cc8cc[nH]c8nc7O[C@H]7COCC[C@@H]76)c5)CC4)C3)[C@H](c3ccccc3C)C2)cnc1N1CCOC[C@@H]1C` [Example 193, 4-(2-((R)-4-((S)-1-(5-methoxy-6-((S)-3-methylmorpholino)pyridin-3-yl)ethyl)-2-(o-tolyl)piperazin-1-yl)-7-azaspiro[3.5]nonan-7-yl)-N-(((R)-5-nitro-3-(tetrahydro-2H-pyran-4-yl)-3,4-dihydro-2H-benzo[b][1,4]oxazin-7-yl)sulfonyl)-2-((5aS,9aR)-6,7,9,9a-tetrahydro-1H-pyrano[3,4-b]pyrrolo[3′,2′:5,6]pyrido[3,2-e][1,4]oxazin-5(5aH)-yl)benzamide], under “Homo sapiens, RS4-11, 72 h”, the IC50 stood at 73.3 nM.

With `COc1ncc(CN2CCN(C3CC4(CCN(c5ccc(C(=O)NS(=O)(=O)c6ccc(NCC7CCC(C)(O)CC7)c([N+](=O)[O-])c6)c(N6c7cc8cc[nH]c8nc7O[C@H]7COCC[C@@H]76)c5)CC4)C3)[C@@H](c3ccccc3OC(C)C)C2)cc1C1CC1` (stereo partly drawn) [Example 136, 4-{2-[(2S)-4-[(5-cyclopropyl-6-methoxypyridin-3-yl)methyl]-2-(2-isopropoxyphenyl)piperazin-1-yl]-7-azaspiro[3.5]nonan-7-yl}-2-[(3R,8S)-2,5-dioxa-9,15,17-triazatetracyclo[8.7.0.0^{3,8}.0^{12,16}]heptadeca-1(10),11,13,16-tetraen-9-yl]-N-[3-nitro-4-({[(1r,4r)-4-hydroxy-4-methylcyclohexyl]methyl}amino)benzenesulfonyl]benzamide], the IC50 under setting [1] was 35.6 nM.

As for `COc1cc(CN2CCN(C3CC4(CCN(c5ccc(C(=O)NS(=O)(=O)c6ccc(NCC7CCC(C)(O)CC7)c([N+](=O)[O-])c6)c(N6c7cc8cc[nH]c8nc7O[C@H]7COCC[C@@H]76)c5)CC4)C3)[C@@H](c3ccccc3OC(C)C)C2)cnc1N1CCOCC1` (stereo partly drawn) [Example 119, N-((4-((((1r,4r)-4-hydroxy-4-methylcyclohexyl)methyl)amino)-3-nitrophenyl)sulfonyl)-4-(2-((S)-2-(2-isopropoxyphenyl)-4-((5-(methoxy-d3)-6-morpholinopyridin-3-yl)methyl)piperazin-1-yl)-7-azaspiro[3.5]nonan-7-yl)-2-((5aS,9aR)-6,7,9,9a-tetrahydro-1H-pyrano[3,4-b]pyrrolo[3′,2′:5,6]pyrido[3,2-e][1,4]oxazin-5(5aH)-yl)benzamide], the IC50 under setting [1] turned out to be 14.6 nM.

Take `Cc1ccccc1[C@@H]1CN(C2CCC(C)(O)CC2)CCN1C1CC2(CCN(c3ccc(C(=O)NS(=O)(=O)c4ccc(NCC5CCC(C)(O)CC5)c([N+](=O)[O-])c4)c(N4c5cc6cc[nH]c6nc5O[C@H]5COCC[C@@H]54)c3)CC2)C1` (stereo partly drawn) [Example 112, 2-[(3R,8S)-2,5-dioxa-9,15,17-triazatetracyclo[8.7.0.0^{3,8}.0^{12,16}]heptadeca-1(10),11,13,16-tetraen-9-yl]-4-{2-[(2R)-2-(2-methylphenyl)-4-[(1r,4r)-4-hydroxy-4-methylcyclohexyl]piperazin-1-yl]-7-azaspiro[3.5]nonan-7-yl}-N-[3-nitro-4-({[(1r,4r)-4-hydroxy-4-methylcyclohexyl]methyl}amino)benzenesulfonyl]benzamide]: under setting [1], the IC50 amounted to 10.9 nM.

Take `COc1cc(CN2CCN(C3CC4(CCN(c5ccc(C(=O)NS(=O)(=O)c6ccc(NCC7CCC(C)(O)CC7)c([N+](=O)[O-])c6)c(N6c7cc8cc[nH]c8nc7O[C@H]7COCC[C@@H]76)c5)CC4)C3)[C@@H](c3ccccc3OC(C)C)C2)cc2cc(C)oc12` (stereo partly drawn) [Example 129, N-((4-((((1r,4r)-4-hydroxy-4-methylcyclohexyl)methyl)amino)-3-nitrophenyl)sulfonyl)-4-(2-((S)-2-(2-isopropoxyphenyl)-4-((7-methoxy-2-methylbenzofuran-5-yl)methyl)piperazin-1-yl)-7-azaspiro[3.5]nonan-7-yl)-2-((5aS,9aR)-6,7,9,9a-tetrahydro-1H-pyrano[3,4-b]pyrrolo[3′,2′:5,6]pyrido[3,2-e][1,4]oxazin-5(5aH)-yl)benzamide]: the IC50 under setting [1] is 33.9 nM.
